From patent US7951956B2, “Benzoimidazole compound capable of inhibiting prostaglandin D synthetase” (Taiho Pharmaceuticals Co., Ltd., priority 2005, dated 2011)

Target: human hematopoietic synthase (Homo sapiens, UniProt O60760)
Experiment: Hematopoietic synthase inhibitory activity (Experiment 1)
Type: biochemical
Settings: [14C] prostaglandin H2 10 μM, preincubated at 25° C. for 5 minutes, 1 minute reaction; read-out: Concentration of Pharmaceutical Compound Required to Inhibit 50% of Hematopoietic Synthase
Method: Experiment 1 was carried out according to the method of Urade, Y. et al. (J. Biol. Chem. 262, 3820-3825, (1987)). More specifically, the reaction mixture (49 μL); 100 mM Tris-HCl (pH 8.0), 1 mM reduced glutathione, 0.1 mg/mL γ-globulin, and human hematopoietic synthase (quantum sufficient), and a test compound (final concentration: 0.01-100 μM) were preincubated at 25° C. for 5 minutes. In place of the test compound, a DMSO solution (final concentration: 1%) was used in the solvent control group (Control Group). Subsequently, 1 μL of [^14C] prostaglandin H2 (final concentration: 10 μM) was added to start the reaction. One minute after the start of the reaction, 250 μL of a reaction stopper solution (diethylether/methanol/1M citric acid (30/4/1) cooled to −20° C. was added to stop the reaction.
Thereafter, 50 μL of the upper layer portion (organic solvent phase) was applied to a TLC plate and developed at −20° C. for 45 minutes (developer: diethylether/methanol/acetic acid (capacity ratio=90/2/1)). After drying the plate, the plate was exposed to an imaging plate for 1 to 24 hours, and the radioactivity corresponding to prostaglandin D2 was analyzed using an image analyzer (product of FUJIFILM Corporation). The area (%) occupied by the prostaglandin D2 band per lane was calculated, and the concentration of the test compound required to inhibit 50% of the hematopoietic synthase (IC50 value) was calculated by comparison with the Control group in each experiment.

Sequence of human hematopoietic synthase (O60760 whole entry): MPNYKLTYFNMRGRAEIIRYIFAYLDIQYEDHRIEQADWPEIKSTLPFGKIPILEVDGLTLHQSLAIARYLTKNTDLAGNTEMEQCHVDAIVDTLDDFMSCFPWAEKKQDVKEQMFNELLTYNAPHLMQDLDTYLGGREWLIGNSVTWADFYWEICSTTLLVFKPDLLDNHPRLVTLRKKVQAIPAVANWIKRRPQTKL

| Compound | IC50 [nM] |
| --- | --- |
| CNC(=O)c1[nH]c(C)c(-c2nc3cc(C(=O)c4ccccc4)ccc3[nH]2)c1C [Compound 66, (N-Methyl)-4-(5-benzoylbenzimidazol-2-yl)-3,5-dimethylpyrrole-2-carboxamide] | 77 |
| Cc1[nH]c(C(=O)NCC2=NNC(=O)CC2)c(C)c1-c1nc2cc(C(=O)c3ccccc3)ccc2[nH]1 [Compound 38, N-(2,3,4,5-Tetrahydro-3-oxo-pyridazine-6-yl-methyl)-4-(5-benzoylbenzimidazol-2-yl)-3,5-dimethylpyrrole-2-carboxamide] | 136 |
| Cc1[nH]c(C(=O)N2CCOCC2)c(C)c1-c1nc2cc(Oc3ccccc3)ccc2[nH]1 [Compound 71, ((4-(5-Phenoxybenzimidazole-2-yl)-3,5-dimethylpyrrol-2-yl)-2-carbonyl)morpholine] | 870 |
| Cc1[nH]c(C(=O)NCC(=O)O)c(C)c1-c1nc2cc(C(=O)c3ccccc3)ccc2[nH]1 [Compound 22, N-(1-Carboxymethyl)-4-(5-benzoylbenzimidazol-2-yl)-3,5-dimethylpyrrole-2-carboxamide] | 829 |
| COc1ccc(CNC(=O)c2[nH]c(C)c(-c3nc4cc(C(=O)c5ccccc5)ccc4[nH]3)c2C)cc1OC [Compound 36, N-(3,4-Dimethoxybenzyl)-4-(5-benzoylbenzimidazol-2-yl)-3,5-dimethylpyrrole-2-carboxamide] | 195 |
| Cc1[nH]c(C(=O)N(C)CCN(C)C)c(C)c1-c1nc2cc(C(=O)c3ccccc3)ccc2[nH]1 [Compound 11, N-Methyl-N-(2-dimethylaminoethyl)-4-(5-benzoylbenzimidazol-2-yl)-3,5-dimethylpyrrole-2-carboxamide] | 269 |
| CC(=O)NCCNC(=O)c1[nH]c(C)c(-c2nc3cc(C(=O)c4ccccc4)ccc3[nH]2)c1C [Compound 18, N-(2-Acetamidoethyl)-4-(5-benzoylbenzimidazol-2-yl)-3,5-dimethylpyrrole-2-carboxamide] | 80 |
| CON(C)C(=O)c1[nH]c(C)c(-c2nc3cc(Oc4ccccc4)ccc3[nH]2)c1C [Compound 74, (N-Methoxy-N-methyl)-4-(5-phenoxybenzimidazole-2-yl)-3,5-dimethylpyrrole-2-carboxamide] | 263 |
| COCCCNC(=O)C1CCN(C(=O)c2[nH]c(C)c(-c3nc4cc(C(=O)c5ccccc5)ccc4[nH]3)c2C)CC1 [Compound 49, N-(3-Methoxypropyl)-1-((4-(5-benzoylbenzimidazol-2-yl)-3,5-dimethylpyrrol-2-yl)-carbonyl)piperidine-4-carboxamide] | 649 |
| Cc1[nH]c(C(N)=O)c(C)c1-c1nc2cc(C(=O)c3ccccc3)ccc2[nH]1 [Compound 12, 4-(5-Benzoylbenzimidazol-2-yl)-3,5-dimethylpyrrole-2-carboxamide] | 100 |
| CCOC(=O)c1[nH]c(C)c(-c2nc3cc(Sc4ccncc4)c(Oc4ccccc4)cc3[nH]2)c1C [Comparative Example 1, 4-(5-(4-Pyridylsulfenyl)-6-phenoxybenzimidazole-2-yl)-3,5-dimethylpyrrole-2-carboxylic acid ethyl ester, reference compound] | > 30000 |
| Cc1[nH]c(C(=O)NCc2ccc(Cl)c(Cl)c2)c(C)c1-c1nc2cc(C(=O)c3ccccc3)ccc2[nH]1 [Compound 35, N-(3,4-Dichlorobenzyl)-4-(5-benzoylbenzimidazol-2-yl)-3,5-dimethylpyrrole-2-carboxamide] | 746 |
| CCOC(=O)C1CCN(C(=O)c2[nH]c(C)c(-c3nc4cc(C(=O)c5ccccc5)ccc4[nH]3)c2C)CC1 [Compound 44, ((4-(5-Benzoylbenzimidazol-2-yl)-3,5-dimethylpyrrol-2-yl)-carbonyl)-4-ethoxycarbonylpiperidine] | 1670 |
| CCOC(=O)CCNC(=O)c1[nH]c(C)c(-c2nc3cc(C(=O)c4ccccc4)ccc3[nH]2)c1C [Compound 19, N-(2-Ethoxycarbonylethyl)-4-(5-benzoylbenzimidazol-2-yl)-3,5-dimethylpyrrole-2-carboxamide] | 874 |
| Cc1[nH]c(C(=O)NCc2ccc3c(c2)OCO3)c(C)c1-c1nc2cc(C(=O)c3ccccc3)ccc2[nH]1 [Compound 37, N-(3,4-Methylenedioxyphenylmethyl)-4-(5-benzoylbenzimidazol-2-yl)-3,5-dimethylpyrrole-2-carboxamide] | 213 |
| Cc1[nH]c(C(=O)Nc2ccc3c(c2)OCO3)c(C)c1-c1nc2cc(C(=O)c3ccccc3)ccc2[nH]1 [Compound 29, N-(3,4-Methylenedioxyphenyl-1-yl)-4-(5-benzoylbenzimidazol-2-yl)-3,5-dimethylpyrrole-2-carboxamide] | 53 |
| Cc1[nH]c(C#N)c(C)c1-c1nc2cc(Oc3ccccc3)ccc2[nH]1 [Compound 75, 2-(2-Cyano-3,5-dimethylpyrrol-4-yl)-5-phenoxybenzimidazole] | 218 |

| Compound | IC50 [nM] |
| --- | --- |
| Cc1[nH]c(C(=O)N2CCC(O)CC2)c(C)c1-c1nc2cc(C(=O)c3ccccc3)ccc2[nH]1 [Compound 43, ((4-(5-Benzoylbenzimidazol-2-yl)-3,5-dimethylpyrrol-2-yl)-carbonyl)-4-hydroxypiperidine] | 791 |
| Cc1[nH]c(C(=O)N(C)O)c(C)c1-c1nc2cc(C(=O)c3ccccc3)ccc2[nH]1 [Compound 65, (N-Hydroxy-N-methyl)-4-(5-benzoylbenzimidazol-2-yl)-3,5-dimethylpyrrole-2-carboxamide] | 124 |
| NC(=O)c1ccc(-c2nc3cc(C(=O)c4ccccc4)ccc3[nH]2)o1 [Compound 60, 5-(5-Benzoylbenzimidazol-2-yl)-furan-2-carboxamide] | 4360 |
| Cc1[nH]c(C(=O)Nc2ccc3c(c2)OCCO3)c(C)c1-c1nc2cc(C(=O)c3ccccc3)ccc2[nH]1 [Compound 32, N-(3,4-Ethylenedioxyphenyl)-4-(5-benzoylbenzimidazol-2-yl)-3,5-dimethylpyrrole-2-carboxamide] | 124 |
| Cc1[nH]c(C(=O)N(C)C)c(C)c1-c1nc2cc(Sc3ccncc3)c(Oc3ccccc3)cc2[nH]1 [Comparative Example 2, (N,N-Dimethyl)-4-(5-(4-pyridylsulfenyl)-6-phenoxybenzimidazole-2-yl)-3,5-dimethylpyrrole-2-carboxamide, reference compound] | > 30000 |
| c1ccc(C(OC2CCN(CCCc3nnn[nH]3)CC2)c2ccccc2)cc1 [HQL-79, 4-benzhydryloxy-1-((3-(1H-tetrazol-5-yl)-propyl))piperidine, reference compound] | 24400 |
| Cc1[nH]c(C(=O)O)c(C)c1-c1nc2cc(C(=O)c3ccccc3)ccc2[nH]1 [Compound 10, 4-(5-Benzoylbenzimidazol-2-yl)-3,5-dimethylpyrrole-2-carboxylic acid] | 436 |
| Cc1[nH]c(C(=O)NCCN2CCCCC2)c(C)c1-c1nc2cc(C(=O)c3ccccc3)ccc2[nH]1 [Compound 24, N-(2-Piperidine-1-yl-ethyl)-4-(5-benzoylbenzimidazol-2-yl)-3,5-dimethylpyrrole-2-carboxamide] | 496 |
| Cc1[nH]c(C(=O)N2CCC(C(=O)N(C)CCN(C)C)CC2)c(C)c1-c1nc2cc(C(=O)c3ccccc3)ccc2[nH]1 [Compound 47, N-Methyl-N-(2-dimethylaminoethyl)-1-((4-(5-benzoylbenzimidazol-2-yl)-3,5-dimethylpyrrol-2-yl)-carbonyl)piperidine-4-carboxamide] | 269 |
| Cc1[nH]c(C(=O)N2CCC(C(=O)NCC3CCCCC3)CC2)c(C)c1-c1nc2cc(C(=O)c3ccccc3)ccc2[nH]1 [Compound 50, N-Cyclohexylmethyl-1-((4-(5-benzoylbenzimidazol-2-yl)-3,5-dimethylpyrrol-2-yl)-carbonyl)piperidine-4-carboxamide] | 843 |
| O=C(c1ccccc1)c1ccc2[nH]c(-c3ccc(C(=O)N4CCCC4)o3)nc2c1 [Compound 59] | 3560 |
| Cc1[nH]c(C(=O)NCCc2ccccn2)c(C)c1-c1nc2cc(C(=O)c3ccccc3)ccc2[nH]1 [Compound 34, N-(2-(2-Pyridyl)ethyl)-4-(5-benzoylbenzimidazol-2-yl)-3,5-dimethylpyrrole-2-carboxamide] | 72 |
| Cc1oc(C(N)=O)c(C)c1-c1nc2cc(Oc3ccccc3)ccc2[nH]1 [Compound 76, 4-(5-Phenoxybenzimidazole-2-yl)-3,5-dimethylfuran-2-carboxamide] | 109 |
| Cc1[nH]c(C(=O)Nc2ccc3[nH]ccc3c2)c(C)c1-c1nc2cc(C(=O)c3ccccc3)ccc2[nH]1 [Compound 28, N-(Indole-5-yl)-4-(5-benzoylbenzimidazol-2-yl)-3,5-dimethylpyrrole-2-carboxamide] | 73 |
| Cc1[nH]c(C(=O)Nc2ccc(C#N)cc2)c(C)c1-c1nc2cc(C(=O)c3ccccc3)ccc2[nH]1 [Compound 27, N-(4-Cyanophenyl)-4-(5-benzoylbenzimidazol-2-yl)-3,5-dimethylpyrrole-2-carboxamide] | 309 |
| Cc1[nH]c(C(=O)N2CCCC2)c(C)c1-c1nc2cc(C(=O)c3ccccc3)ccc2[nH]1 [Compound 39, ((4-(5-Benzoylbenzimidazol-2-yl)-3,5-dimethylpyrrol-2-yl)-carbonyl)pyrrolidine] | 351 |
